According to paper PMC9316000, “Preclinical Drug Pharmacokinetic, Tissue Distribution and Excretion Profiles of the Novel Limonin Derivate HY-071085 as an Anti-Inflammatory and Analgesic Candidate in Rats and Beagle Dogs” (Pharmaceuticals, 2022):
“Also recorded” adds a separate entry of the source. Read-outs that look alike come from different tables or passages of the source.

Key:
[1] = Pharmacokinetics after single-dose intravenous administration in beagle dogs; assay type: in vivo; conditions: S-IV 1.25 mg/kg
Procedure: After the intravenous administration of 1.25 mg/kg HY-071085, there was also no gender difference for the plasma concentration time data in Figure 9.
In vivo PK profiling in dogs: Beagle dogs (approximately 8–10 kg in weight) were purchased from Jiangsu Yadong Experimental Animal Research Institute Co. Ltd (Nanjing, China). Before the experiment, several beagle dogs were randomly divided into several groups, half males and half females in each group. Four cycles of single-dose administration experiments were carried out, and the cleaning period was 3–5 days. Repeated-dose administration was carried out after the end of four cycles of single-dose administrations and cleaning periods. According to the dosage for the rats, the dosage for the beagle dogs was converted via the body surface area method. The HY-071085 active pharmaceutical ingredients were administered with a dosage volume of 2 mL/kg body weight. The whole-blood samples were centrifuged at 8000 rpm for 5 min, and the plasma samples were separated and stored at –80 °C until the analysis.
(§1) According to the obtained plasma concentration time data, the pharmacokinetic parameters were calculated using Phoenix WinNonlin 8.1 software. The pharmacokinetic parameters—i.e., the area under the curve (AUC), mean residence time (MRT), clearance rate (Cl/F) and steady-state apparent distribution volume (Vss/F)—were calculated by the method of moments, which was estimated according to the following formulae: AUCtn=∑Ci+Ci−1ti−ti−1/2 AUC∞=AUCtn+Cm/λ AUMCtn=∑tiCi+ti−1Ci−1ti−ti−1/2 AUMC∞=AUMCtn+Ctntn/λ+1/λ^2 MRT=AUMC∞/AUC∞ Cl/F=Dose/AUC Vss/F=Cl∗MRT where Ctn is the plasma concentration of tn at the last point after administration, and the elimination rate constant was obtained by ln(concentration) time linear regression.
(§2) Due to the drug having significant individual differences in rats, it could not be uniformly fitted with a PK atrioventricular model; as such, the pharmacokinetic parameters analyzed in this study were calculated using a non-atrioventricular model. The pharmacokinetic parameters are defined as follows: Cmax is the maximum blood concentration after administration and absorption, Tmax is the time required to reach Cmax, t1/2 is the time required to eliminate half of the plasma drug concentration after the drug distribution in the body reaches equilibrium, Cl/F is the apparent clearance rate, AUC0-tn is the area under the blood concentration time curve within the dosing interval, AUC0-∞ is the area under the plasma concentration time curve from 0 to infinity, MRT is the average time that all drug molecules stay in the body, and Vss/F is the steady-state apparent distribution volume, which is the product of the clearance rate and average residence time.

[2] = set-up: method as in earlier work; conditions: Temp 25℃, pH 7.4; cited from earlier work
[3] = Excretion in feces, urine and bile (material balance) in rats; assay type: in vivo, Sprague Dawley rats
Procedure: After the single-dose intragastric administration of HY-071085 (6.5 mg/kg) to male and female rats, their feces, urine and bile were collected at various time points within 24 h in order to analyze the excretion of HY-071085. The amount of unchanged parent compound recovered from the feces, urine and bile was negligible in rats (about 1.3% of the dose, Table 3).
Excretion in urine and feces (rats): The Sprague Dawley rats were aged approximately 6 weeks old and weighed 185–212 g at the onset of treatment. Urine and fecal samples were collected for the excretion study using metabolic cages. After the oral administration of 6.5 mg/kg HY-071085, urine and feces were collected at 0–6, 6–12 and 12–24 h. The urine volumes were recorded and transferred to centrifuge tubes. The fecal weights were recorded at each sampling period, and then those feces were dried, ground and mixed thoroughly. Then, 0.1 g feces was accurately weighed, mixed with 1 mL deionized water, and homogenized to be used as a fecal sample. All of the samples were stored at –80 °C until the analysis.
Excretion in bile (rats): The Sprague Dawley rats were approximately 6 weeks old and weighed 174–215 g at the onset of treatment. The rats were anesthetized with diethyl ether, and the bile duct was then cannulated for bile collection. After allowing recovery from surgery and anesthesia, these bile duct–cannulated rats were administered a single 6.5 mg/kg dose of HY-071085 by gastric gavage.

[4] = Pharmacokinetics after repeated-dose intragastric administration in rats; assay type: in vivo, Sprague Dawley rats; conditions: for CL/F at 14 days / MRT at 14 days / CL/F at 28 days / MRT at 28 days / Tmax at 14 days / Cmax at 14 days / half-life at 14 days / Vd/F at 14 days / Cmax at 28 days / Tmax at 28 days / half-life at 28 days / Vd/F at 28 days / AUC(0-inf) / AUC: rat, plasma, po, R-IG 6.5 mg/kg; for Vd/F at 14 days / Vd/F at 28 days: read-out: Vss/F; for decrease of plasma exposure level compared with single administration / AUC(0-inf) / AUC: 6.5 mg/kg; for decrease of plasma exposure level compared with single administration: after 28 days of continuous administration; for plasma drug exposure level as % of the single dose: 28th day of intragastric administration; for AUC: read-out: AUC0-tn
Procedure: Male and female rats were given HY-071085 (6.5 mg/kg) by gastric gavage twice a day for 28 days. […] After 28 days of continuous administration, the plasma exposure levels of the male and female rats decreased by 49% and 85%, respectively, compared with that after a single administration (Figure 6).
In vivo PK profiling in the rats: Sprague Dawley rats (approximately 177–221 g in weight) were purchased from Shanghai Xipur-Bikai Experimental Animal Co., Ltd. (Shanghai, China). Before the experiment, several rats were randomly divided into several groups, half males and half females in each group, fasting but free to drink water for 12 h. The dosage of the rats was dependent on the drug pharmacology: the HY-071085 active pharmaceutical ingredients were administered with a dosage volume of 0.25 mL/100 g body weight. The whole-blood samples were centrifuged at 8000 rpm for 5 min, and the plasma samples were separated and stored at –80 °C until the analysis.
as §1, §2

[5] = gavage 6.5 mg/kg, within 24 h, % of the dose
[6] = Sprague Dawley, female rats, 14 days
[7] = Sprague Dawley, female rats, 28 days
[8] = Sprague Dawley, male rats, 14 days
[9] = Sprague Dawley, male rats, 28 days
[10] = Sprague-Dawley, female rats, 14 days
[11] = Sprague-Dawley, female rats, 28 days
[12] = Sprague-Dawley, male rats, 14 days
[13] = Sprague-Dawley, male rats, 28 days
[14] = female, Sprague Dawley, female rats, 14 days
[15] = female, Sprague Dawley, female rats, 28 days
[16] = male, Sprague Dawley, male rats, 14 days
[17] = male, Sprague Dawley, male rats, 28 days

CC1(C)OC2CC(=O)OCC23C1C/C(=N\OCCN1CCOCC1)C1(C)C3CC[C@@]2(C)[C@H](c3ccoc3)OC(=O)C3OC312 (stereo partly drawn) [HY-071085, (12S,12aS,E)-12-(furan-3-yl)-6,6,8a,12a-tetramethyl-8-((2-morpholinoethoxy)imino)dodecahydro-1H,3H-oxireno [2,3-d]pyrano [4’,3’:3,3a]isobenzofuro [5,4-f]isochromene-3,10(9aH)-dione]
Cl/F [1]: 51.2 ± 24.2 mL/min/kg | Vss/F [1]: 2.07 ± 1.17 L/kg | AUC(0-inf) ([1]; both sexes, dog, plasma): 594 ± 538 ng·h/mL | Cmax ([1]; both sexes, dog, plasma): 1200 ± 1510 ng/mL | MRT ([1]; both sexes, dog, plasma): 0.62 ± 0.2 h | Tmax ([1]; both sexes, dog, plasma): 5.4 ± 1.8 min | half-life ([1]; both sexes, dog, plasma): 0.7 ± 0.09 h | AUC ([1]; both sexes, dog, plasma, read-out: AUC0-tn): 591 ± 539 ng·h/mL | LogD [2]: 2.45 | route of elimination ([3]; excretion and material balance): mainly eliminated as metabolites; also recorded: mainly eliminated by metabolism | HY-071085 prototype recovered in bile ([3]; gavage 6.5 mg/kg, bile 0~8 h, % of the dose): 0.206 ± 0.206% | HY-071085 prototype recovered in feces [3, 5]: 0.812 ± 0.611% | HY-071085 prototype recovered in urine [3, 5]: 0.254 ± 0.164% | CL/F at 14 days [4, 6]: 630 mL/min/kg | MRT at 14 days [4, 6]: 2.18 ± 0.27 h | CL/F at 28 days [4, 7]: 1730 mL/min/kg | MRT at 28 days [4, 7]: 2.54 ± 1.15 h | CL/F at 14 days [4, 8]: 836 mL/min/kg | Tmax at 14 days [4, 8]: 0.65 ± 0.38 h | CL/F at 28 days [4, 9]: 1860 mL/min/kg | MRT at 28 days [4, 9]: 1.74 ± 0.86 h | Cmax at 14 days [4, 10]: 125 ± 80.3 ng/mL | Tmax at 14 days [4, 10]: 0.68 ± 0.75 h | half-life at 14 days [4, 10]: 1.38 ± 0.24 h | Vd/F at 14 days [4, 10]: 80 ± 51 L/kg | Cmax at 28 days [4, 11]: 37.2 ± 19.9 ng/mL | Tmax at 28 days [4, 11]: 0.33 ± 0.16 h | half-life at 28 days [4, 11]: 1.75 ± 1.14 h | Vd/F at 28 days [4, 11]: 292 ± 251 L/kg | Cmax at 14 days [4, 12]: 63.2 ± 11.2 ng/mL | MRT at 14 days [4, 12]: 2.26 ± 0.33 h | half-life at 14 days [4, 12]: 1.52 ± 0.23 h | Vd/F at 14 days [4, 12]: 108 ± 13.8 L/kg | Cmax at 28 days [4, 13]: 38.9 ± 12.7 ng/mL | Tmax at 28 days [4, 13]: 0.6 ± 0.78 h | half-life at 28 days [4, 13]: 1.11 ± 0.41 h | Vd/F at 28 days [4, 13]: 169 ± 35.2 L/kg | decrease of plasma exposure level compared with single administration ([4]; female rats): 85% | plasma drug exposure level as % of the single dose ([4]; female rats): about 15% | AUC(0-inf) [4, 14]: 233 ± 159 ng·h/mL | AUC [4, 14]: 229 ± 159 ng·h/mL | AUC(0-inf) [4, 15]: 70.2 ± 28.8 ng·h/mL | AUC [4, 15]: 65.8 ± 28.9 ng·h/mL | decrease of plasma exposure level compared with single administration ([4]; male rats): 49% | plasma drug exposure level as % of the single dose ([4]; male rats): about 50% | AUC(0-inf) [4, 16]: 133 ± 22.3 ng·h/mL | AUC [4, 16]: 127 ± 22.4 ng·h/mL | AUC(0-inf) [4, 17]: 59.9 ± 10.5 ng·h/mL | AUC [4, 17]: 55 ± 8.82 ng·h/mL
